Assay results: patent publication US20250195530A1, “POLQ INHIBITORS” (ASTRAZENECA AB, priority 2022, published 2025)
Where two headings read alike, the source gives them in different places.

What was measured:
[1] = system: DLD-1 BRCA2−/− cells; test: Homologous recombination synthetic lethal inhibition of proliferation, DLD-1 BRCA2-/- (Cell Titre Glo 3D); type: cell-based; settings: Homo sapiens
Outline: (§1)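 Luminescent Cell Titre Glo 3D readout, taken on day 12 for homologous-recombination-deficient DLD-1 BRCA2−/− and day 7 for the wild-type control, after compound refresh on day 6. Compounds spanned 10 μM to 0.51 nM in three-fold steps; IC50 defined as 50% reduction of average maximum signal.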

[2] = system: DLD-1 cells; test: Inhibition of proliferation, DLD-1 BRCA2 wt control (Cell Titre Glo 3D); type: cell-based; settings: Homo sapiens
Outline: as §1

[3] = DLD-1, first proliferation column (c5), DLD-1 BRCA2-/-, read-out: POLQ PD Prolif Lumin (converted)
[4] = DLD-1, second proliferation column (c6), DLD-1 BRCA2 wt control, read-out: POLQ PD Prolif Lumin (converted)
[5] = DLD-1, 288 h, DLD-1 BRCA2−/− cells, 12 days, read-out: POLQ PD Prolif Lumin BRCA2 −/− mean pIC50 (converted)
[6] = DLD-1, 168 h, DLD-1 BRCA2 wt cells, 7 days, read-out: POLQ PD Prolif Lumin DLD1 mean pIC50 (converted)

Row | Compound | IC50 [2, 6] [nM] | IC50 [1, 5] [nM] | further results
1 | Cc1ccnc(Cn2c(-c3ccc(N4CCCC4=O)cc3Cl)nc3c(OC4(C)CC4)ncnc32)c1 [Example T171, 1-(3-chloro-4-(6-(1-methylcyclopropoxy)-9-((4-methylpyridin-2-yl)methyl)-9H-purin-8-yl)phenyl)pyrrolidin-2-one] |  |  | IC50 [1, 3]: 158 nM; IC50 [2, 4]: > 10000 nM
2 | CN1CCN(CCOc2ccc(-c3nc4c(OC5(C)CC5)ncnc4n3Cc3ccccc3)c(F)c2F)CC1 [Example H5, 9-benzyl-8-(2,3-difluoro-4-(2-(4-methylpiperazin-1-yl)ethoxy)phenyl)-6-(1-methylcyclopropoxy)-9H-purine] | 7940 | 398 | 
3 | CC1(Oc2ncnc3c2nc(-c2ccc(OCCN4CCNCC4)cc2Cl)n3Cc2cc(C#N)ccn2)CC1 [Example L4, 2-((8-(2-chloro-4-(2-(piperazin-1-yl)ethoxy)phenyl)-6-(1-methylcyclopropoxy)-9H-purin-9-yl)methyl)isonicotinonitrile] | > 10000 | 1000 | 
4 | Cc1ccnc(Cn2c(-c3ccc(CC(=O)N4C[C@@H](C)N[C@@H](C)C4)cc3Cl)nc3c(OC4(C)CC4)ncnc32)c1 [Example T606, 2-(3-chloro-4-(6-(1-methylcyclopropoxy)-9-((4-methylpyridin-2-yl)methyl)-9H-purin-8-yl)phenyl)-1-((3R,5S)-3,5-dimethylpiperazin-1-yl)ethan-1-one] |  |  | IC50 ([1]; DLD-1, first proliferation column, DLD-1 BRCA2-/-, read-out: POLQ PD Prolif Lumin (converted)): 794 nM; IC50 ([2]; DLD-1, second proliferation column, DLD-1 BRCA2 wt control, read-out: POLQ PD Prolif Lumin (converted)): > 10000 nM
5 | CC(=O)COc1ccc(-c2nc3c(OC4(C)CC4)ncnc3n2Cc2cc(C)ccn2)c(Cl)c1 [Example T104, 1-(3-chloro-4-(6-(1-methylcyclopropoxy)-9-((4-methylpyridin-2-yl)methyl)-9H-purin-8-yl)phenoxy)propan-2-one] |  |  | IC50 [1, 3]: 200 nM; IC50 [2, 4]: > 10000 nM
6 | CC(COc1cccc(-c2nc3c(OC4(C)CC4)ncnc3n2Cc2cccc(Cl)c2)c1Cl)CC(=O)O (single isomer, unassigned) [Example T299, 4-(2-chloro-3-(9-(3-chlorobenzyl)-6-(1-methylcyclopropoxy)-9H-purin-8-yl)phenoxy)-3-methylbutanoic acid] |  |  | IC50 ([1]; DLD-1, first proliferation column (c5), taken as DLD-1 BRCA2-/-, read-out: POLQ PD Prolif Lumin (converted)): 79.4 nM; IC50 ([2]; DLD-1, second proliferation column (c6), taken as DLD-1 BRCA2 wt, read-out: POLQ PD Prolif Lumin (converted)): > 10000 nM
7 | Cc1ccnc(Cn2c(-c3ccc(CCN(C)C)cc3Cl)nc3c(OC4(C)CC4)ncnc32)c1 [Example T236, 2-(3-chloro-4-(6-(1-methylcyclopropoxy)-9-((4-methylpyridin-2-yl)methyl)-9H-purin-8-yl)phenyl)-N,N-dimethylethan-1-amine] |  |  | IC50 ([1]; DLD-1, DLD-1 BRCA2-/- proliferation, column head only partly shown, read-out: POLQ PD Prolif Lumin (converted)): 251 nM; IC50 ([2]; DLD-1, DLD-1 BRCA2 wt control proliferation, column head only partly shown, read-out: POLQ PD Prolif Lumin (converted)): > 10000 nM
8 | CC1(Oc2ncnc3c2nc(-c2ccc(CN4CCCC4)cc2Cl)n3Cc2ccccc2)CC1 [Example N5, 9-benzyl-8-(2-chloro-4-(pyrrolidin-1-ylmethyl)phenyl)-6-(1-methylcyclopropoxy)-9H-purine] | 3980 | 100 | 

The next lines start with results.

Row | IC50 [2, 6] [nM] | Compound | IC50 [1, 5] [nM] | further results
9 | 2000 | CCC1(Oc2ncnc3c2nc(-c2ccc(OCCN4CCNCC4)cc2Cl)n3Cc2ccccc2)CC1 [Example Q2, 9-benzyl-8-(2-chloro-4-(2-(piperazin-1-yl)ethoxy)phenyl)-6-(1-ethylcyclopropoxy)-9H-purine] | 398 | 
10 | 3980 | CC1(Oc2ncnc3c2nc(-c2ccc(OCCN4CCNCC4)cc2Cl)n3Cc2ccccc2)CC1 [Example 6, 9-Benzyl-8-(2-chloro-4-(2-(piperazin-1-yl)ethoxy)phenyl)-6-(1-methylcyclopropoxy)-9H-purine] | 158 | 
11 | > 10000 | N#CC1(Oc2ncnc3c2nc(-c2ccc(OCCN4CCNCC4)cc2Cl)n3Cc2ccccc2)CC1 [Example 13, 1-((9-Benzyl-8-(2-chloro-4-(2-(piperazin-1-yl)ethoxy)phenyl)-9H-purin-6-yl)oxy)cyclopropane-1-carbonitrile] | 251 | 
12 | 501 | CC1(Oc2ncnc3c2nc(-c2ccc(OCCN4CCNCC4)c(Cl)c2Cl)n3Cc2ccccc2)CC1 [Example J1, 9-benzyl-8-(2,3-dichloro-4-(2-(piperazin-1-yl)ethoxy)phenyl)-6-(1-methylcyclopropoxy)-9H-purine] | 251 | 
